Source: US20110251233A1, “FORMULATION FOR THE BUCCAL TRANSMUCOSAL ADMINISTRATION OF SETRONS” (priority 2008, published 2011)

Test: dissolution of ondansetron in hydroalcoholic solution
Assay type: physicochemical
Conditions: approximately 50° ethanol
Procedure: By way of example, the coefficient of dissolution of ondansetron in ethanol allows complete dissolution of said active ingredient at the rate of 2 milligrams (mg) of ondansetron per 0.75 milliliters (mL) of approximately 50° ethanol. This coefficient may be modulated as a function of the degree of alcohol and the water/ethanol ratio used.

Cc1nccn1CC1CCc2c(c3ccccc3n2C)C1=O (stereo not shown) [ondansetron]
coefficient of dissolution (complete dissolution): 2 mg per 0.75 mL
